These results are taken from US11072616B2, “Cyclic peptides targeting alpha-4-beta-7 integrin” (Zealand Pharma A/S, priority 2015, dated 2021).

For data set [1] the following is noted: mouse, in vivo.
Method: (§1) Oral bioavailability of test compounds was conducted by assessing plasma exposure of following one or two oral doses in mice and, in some cases, comparing said plasma exposure with that following a single intravenous dose of the same compound.
(§2) Body weights were recorded on the day of dosing.
(§3) Dosing: The formulation containing the test compound were administered p.o. by gavage with disposable feeding needles.
(§4) Sample processing/storage: All blood samples were transferred into K2EDTA tubes on wet ice and centrifuged within 5 min (3200×g for 5 min at 4° C.) to obtain plasma. Samples were stored frozen at −80° C. until bioanalysis.
(§5) Instrumentation: AB Sciex API 4000 Q-TRAP MS/MS system equipped with an Agilent LC system with a binary pump, a solvent degasser, a thermostatted column compartment, a CTC autosampler and a divert valve installed between the column and mass spectrometer inlet.
Data set [2] in a line: In vivo pharmacokinetic assessment, liver. Set-up: species or system CD-1 mice. The text has this: In Vivo Pharmacokinetic Assessments in Rodents
The livers will be blotted and weighed.

Data set [3] in a line: In vivo pharmacokinetic assessment, plasma. As to conditions: naïve mice.
Method: as §1, §2, §3, §4, §5
Data set [4] is described as follows: In vivo pharmacokinetic assessment, colon. The arrangement: species or system CD-1 mice. Particulars: for tmax: colon, naïve mice.
For another data set, the system named is DSS-treated mice. In words: 8-day efficacy study in DSS model (therapeutic) of ulcerative colitis. In kind it is in vivo, C57Bl/6 mice. As to conditions: for reduction of DAI score: Day 8 vs DSS+vehicle; for reduction of lesion length: vs control vehicle treated-group. How it is done:
Animals. Female C57Bl/6 mice (Charles River, St-Constant, Qc), weighting 16-19 g at delivery were used for this study. Following arrival in the animal facility, all animals were subjected to a general health evaluation. An acclimation period of 7-14 days was allowed before the beginning of the study.
Oral dosing of the test article and the vehicle. From Day 5 to Day 8, nacellins and the vehicle were administered as a single slow bolus (over approximately 5 seconds) via oral route (p.o.), according to the procedure of administration of solution by gavage: the animal was firmly restrained. A bulb-tipped gastric gavage needle of 22G was passed through the side of the mouth and was advanced towards the oesophagus. The test articles and the vehicle were dosed orally at 5 mL/kg.
Intraperitoneal dosing of the test articles and the vehicle. On day 5, DATK32 antibody was administered in only on Day 5, as a single slow bolus (over approximately 5 seconds) via the i.p. route. […] Intraperitoneal administration was performed accordingly to the following procedure: the mouse was restrained manually and held with the head and body tilted downward. The tip of the needle (27 G) was inserted through the skin and just past the abdominal wall. A short pull back of the plunger of the syringe was done prior to administration of the solution to make sure that the syringe was not inserted in any abdominal organ (fluid would be pulled back into the syringe in this case).
Inflammation Score. Once the mouse was euthanized, the colon was collected and its length was measured. Lesion length was also measured. Colon inflammation was scored based on severity of oedema and ulceration.
Disease Activity Index (DAI) assessment. Body weight and DAI were measured on Day 5 in order to distribute DSS-treated animals in two uniform groups prior dosing. Specific symptoms associated to UC were scored based on the severity of each particular symptoms: 1—blood in stool (negative hemoccult, positive hemoccult, blood traces in stool visible, rectal bleeding); 2—stool consistency (normal, soft but still formed, very soft, diarrhea); 3—posture and fur (normal; ruffled fur; ruffled fur combined to slight hunched posture and slight dehydration; ruffled fur combined to hunched posture, dehydration and altered walking; moribund (euthanasia is mandatory before the animal reach this point). The overall DAI score was the sum of the three parameters (maximum score 9). Body weight measurement and DAI assessment were performed also on Day 8 to evaluate the effect of the treatments.

Data set [5] deals with CD3+CD4+α4β7+ T lymphocytes. Kind of data set: FACS analysis of T lymphocyte populations, 8-day DSS study. In kind it is in vivo, C57Bl/6 mice. An excerpt:
Collection of samples. On Day 8, five hours after ET02451-01, ET02452-01 and vehicle dosing, the animals were euthanized by cardiac puncture under general anesthesia, according to the “Guide to the Care and Use of Experimental Animals” published by the CCAC. Blood was transferred in a Sarstedt tube containing EDTA. Mesenteric and peripheral (inguinal, auxiliary and brachial) lymph nodes were collected and transferred on ice in corresponding tubes containing cold PBS. Nodes were kept on ice until tissue preparation.
Cell population labeling. Blood was withdrawn by cardiac puncture and collected on EDTA-coated tubes. Mensenteric lymph nodes (MLN) and peripheral lymph nodes (PLN) were also collected. Mononuclear cells from the tissues will be isolated using density gradient (Lympholyte) and they were stained with fluorescent antibodies. […] After washes, cells were fixed using BD Fix Solution. Percentage of different subpopulations of T lymphocytes were then analysed using FACSCalibur cytometer. Antibodies employed were the same as listed for the single-dose PD studies above.

Where two headings read alike, the source gives them in different places.

Broadly, the Cmax is the highest concentration seen after dosing. For `CC(C)C[C@@H]1NC(=O)c2ccc(-c3ccc(N4CCNCC4)cc3)c(c2)CNC(=O)[C@@H]2CCCN2[C@H](C(=O)NC(C)(C)C)[C@H](C)NC(=O)[C@H]([C@@H](C)O)NC(=O)[C@H](CC(=O)O)NC1=O` [ET02451], the F in data set [1] (iv, 5 mg/kg) was determined as 100%; in data set [1] (po, 40 mg/kg), 11.0%. In addition, the “elimination half-life in plasma” value in data set [1] (po) was about 0.5 h. For the same molecule, the “oral bioavailability / absorption (in words)” value in data set [1] (po) is “significant absorption from the gut and systemic exposure following oral dosing”. Further, the AUC0-tiast was 686 ng·h/mL in data set [1] (po, 40 mg/kg) and 778 ng·h/mL in data set [3] (single i.v. 5 mg/kg). The tmax came out at 0.0833 h in data set [2] (liver, single i.v. 5 mg/kg, naïve mice); 2.00 h in data set [2] (mouse, in vivo, po, 40 mg/kg); 4.98 min in data set [3] (single i.v. 5 mg/kg); 2.00 h in data set [4] (single i.v. 5 mg/kg); 2.00 h in data set [4] (single p.o. 40 mg/kg). The “bioavailability in the liver” value in data set [2] (mouse, in vivo) was about 8%. Also, in data set [2] (mouse, in vivo), the “main route of elimination” value is recorded as “hepatobiliary clearance”. For the same molecule, the AUC0-inf in data set [2] (mouse, in vivo, iv, 5 mg/kg) is 8460 ng·h/mL; in data set [2] (mouse, in vivo, po, 40 mg/kg), 6054 ng·h/mL; in data set [4] (mouse, in vivo, iv, 5 mg/kg), 17140 ng·h/mL; in data set [4] (mouse, in vivo, po, 40 mg/kg) it was 145327 ng·h/mL. Besides, the AUC0-tlast in data set [2] (mouse, in vivo, iv, 5 mg/kg) is 8289 ng·h/mL; in data set [2] (mouse, in vivo, po, 40 mg/kg), 6024 ng·h/mL; in data set [4] (mouse, in vivo, iv, 5 mg/kg), 17109 ng·h/mL; in data set [4] (mouse, in vivo, po, 40 mg/kg), 130746 ng·h/mL. The MRT0-inf in data set [2] (mouse, in vivo, iv, 5 mg/kg) was 2.00 h; in data set [2] (mouse, in vivo, po, 40 mg/kg) it was 2.11 h; in data set [4] (mouse, in vivo, iv, 5 mg/kg), 3.43 h; in data set [4] (mouse, in vivo, po, 40 mg/kg), 4.59 h. In data set [2] (mouse, in vivo, po), this molecule returned a half-life in liver of about 8 h. This molecule registered a Cmax in data set [3] (single p.o. 40 mg/kg) of 4638 ng/mL. Moreover, the “oral bioavailability in colon” value in data set [4] (mouse, in vivo) is reported as about 100%. The half-life in colon result in data set [4] (mouse, in vivo, po) is “greater than 21 hours”. Further, the “reduction of DAI score” value with DSS-treated mice (oral 40 mg/kg, Day 5 to Day 8) was 15%. For the same molecule, in the data set with DSS-treated mice (oral 40 mg/kg, vehicle group 40%), the lesion/colon length worked out at 12%. In the data set on DSS-treated mice (oral 40 mg/kg), the “reduction of lesion length” value is given as “significantly reduced the lesion length”. Moreover, the “CD3+CD4+α4β7+ cell population in mesenteric lymph nodes” value in data set [5] (p.o. 40 mg/kg) is given as “significant decrease”.

Regarding `CC(C)C[C@@H]1NC(=O)c2ccc(-c3ccnc4ccccc34)c(c2)CNC(=O)[C@@H]2CCCN2[C@H](C(=O)NC(C)(C)C)[C@H](C)NC(=O)[C@H]([C@@H](C)O)NC(=O)[C@H](CC(=O)O)NC1=O` [ET02452], the “oral bioavailability / absorption (in words)” value in data set [1] (po) is reported as “low oral bioavailability”. Besides, the “reduction of DAI score” value with DSS-treated mice (i.p.: ET02452-01 65 mg/kg Day 5-8, DATK32 15 mg/kg Day 5) is on record as 46%; in the data set with DSS-treated mice (oral 40 mg/kg, Day 5 to Day 8) it was “did not have any beneficial effect”. Besides, the “reduction of lesion length” value was 20% in the data set with DSS-treated mice (i.p.: ET02452-01 65 mg/kg, DATK32 15 mg/kg Day 5) and 53% in the data set on DSS-treated mice (oral 40 mg/kg). The “CD3+CD4+α4β7+ cell population in mesenteric lymph nodes” value in data set [5] (i.p.: ET02452 65 mg/kg, DATK32 15 mg/kg) is recorded as “significant decrease”.
